From patent US7517998B2, “Non nucleoside reverse transcriptase inhibitors” (priority 2004, dated 2009)

molecular target: T1, K103NNY181C mutant reverse transcriptase (Human immunodeficiency virus type 1 group M subtype B, UniProt P04585, K690N/Y768C); assay: Reverse transcriptase enzymatic assay (PicoGreen), K103N/Y181C mutant RT; assay type: biochemical, HIV-1; details: IC50 mut (nM), mutant (K103N/Y181C) reverse transcriptase, enzymatic assay of Example 24
T1 construct: mutations that occur in the reverse transcriptase segment of the pol gene
In short: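 HIV-1 RT (2.5 nM final) pre-incubated 15 min at room temperature with inhibitor, then reacted 50 min at 37 °C with poly rC 45 nM, dG15 4.5 nM, dGTP 3.6 μM in Tris/HCl pH 7.8, 1% DMSO. Final inhibitor 10 μM to 0.508 nM; EDTA-quenched, PicoGreen fluorescence read at 485/520 nm.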

Going from `CC(C)(C)c1ccc(-n2nnnc2SCC(=O)Nc2ccc(NC(=O)CCc3ccccc3)cc2Cl)c(Cl)c1` [Compound 7038] to `CC(C)(C)c1ccc(-n2nnnc2SCC(=O)Nc2ccc(NC(=O)Cc3ccccc3)cc2Cl)c(Cl)c1` [Compound 7001], the IC50 falls from 860 nM to 116 nM (7.4-fold).

First: CC(C)(C)c1ccc(-n2nnnc2SCC(=O)Nc2ccc(NC(=O)Cc3ccccc3Cl)cc2Cl)c(Cl)c1 [Compound 7035]
Second: CN(C)c1ccc(CC(=O)Nc2ccc(NC(=O)CSc3nnnn3-c3ccc(C(C)(C)C)cc3Cl)c(Cl)c2)cc1 [Compound 7037]
The IC50 of the first is 2.4-fold lower: 100 nM for the first, 236 nM for the second. The first is the more potent here.

`CC(C)(C)c1ccc(-n2nnnc2SCC(=O)Nc2ccc(NS(=O)(=O)c3ccccc3)cc2Cl)c(Cl)c1` [Compound 7003] gave an IC50 of 607 nM.

same assay, conditions: IC50 mut, K103N/Y181C mutant reverse transcriptase, enzymatic assay of Example 24

First: CC(C)(C#Cc1ccc(NC(=O)CSc2nnnn2-c2cc(C(F)(F)F)ccc2Cl)c(Cl)c1)NC(=O)c1cc[n+]([O-])cc1 [Compound 4120]
Second: CC(C)(C#Cc1ccc(NC(=O)CSc2nnnn2-c2cc(C(C)(C)C)ccc2Cl)c(Cl)c1)NC(=O)c1cc[n+]([O-])cc1 [Compound 4205]
The IC50 of the first is 1.6-fold lower: 17.5 nM for the first, 28.5 nM for the second. The first is the more potent here.

`CC(C)(C#Cc1ccc(NC(=O)CSc2nnnn2-c2ccc(C(C)(C)C)cc2Cl)c(Cl)c1)OCC(=O)O` [Compound 4020] and `CC(C)(C#Cc1ccc(NC(=O)CSc2nnnn2-c2ccc(C(C)(C)C)cc2Cl)c(Cl)c1)C(=O)O` [Compound 4011] are within 1.5-fold of each other in IC50: 33 nM for the first, 25 nM for the second.

First: O=C(CSc1nnnn1-c1ccc(C2CC2)cc1Cl)Nc1ccc(C#CC2(CNCCN3CCCC3)CC2)cc1Cl [Compound 4095]
Second: C=CC#Cc1ccc(NC(=O)CSc2nnnn2-c2ccc(C3CC3)cc2Cl)c(Cl)c1 [Compound 4133]
The IC50 of the first is 1.8-fold higher: 98.5 nM for the first, 53.5 nM for the second. The second is the more potent here.

`CC(C)(C#Cc1ccc(NC(=O)CSc2nnnn2-c2cc(C(F)(F)F)ccc2Cl)c(Cl)c1F)OCCOc1ccncc1` [Compound 4166] and `CC(C)(N)C#Cc1ccc(NC(=O)CSc2nnnn2-c2cc(C(F)(F)F)ccc2Cl)c(Cl)c1` [Compound 4137] are within 1.5-fold of each other in IC50: 126 nM for the first, 88 nM for the second.

`CC(C)(C#Cc1ccc(NC(=O)CSc2nnnn2-c2ccc(C3CC3)cc2Cl)c(Cl)c1)NC(=O)CC(=O)O` [Compound 4232] and `CNC(=O)NC(C)(C)C#Cc1ccc(NC(=O)CSc2nnnn2-c2ccc(C3CC3)cc2Cl)c(Cl)c1` [Compound 4071] are within 1.5-fold of each other in IC50: 10 nM for the first, 8.75 nM for the second.

`CC(C)c1ccc(-n2nnnc2SCC(=O)Nc2ccc(C#CC(C)(C)C(=O)O)cc2Cl)c(Br)c1` [Compound 4099] and `CC(C)(C#Cc1ccc(NC(=O)CSc2nnnn2-c2cc(Br)ccc2Cl)c(Cl)c1)C(=O)O` [Compound 4218] are within 1.5-fold of each other in IC50: 42.5 nM for the first, 31.5 nM for the second.

`CCNC(=O)NC(C)(C)C#Cc1ccc(NC(=O)CSc2nnnn2-c2ccc(C3CC3)cc2Cl)c(Cl)c1` [Compound 4075] and `CC(C)(C#Cc1ccc(NC(=O)CSc2nnnn2-c2ccc(C3CC3)cc2Cl)c(Cl)c1)NCC1CC1` [Compound 4128] are within 1.5-fold of each other in IC50: 20.5 nM for the first, 27 nM for the second.

Compared with `CC(C)(C#Cc1ccc(NC(=O)CSc2nnnn2-c2ccc(C3CC3)cc2Cl)c(Cl)c1)OCCN1CCCC1=O` [Compound 4182], `CC(C)(C#Cc1ccc(NC(=O)CSc2nnnn2-c2ccc(C3CC3)cc2Cl)c(Cl)c1)OCCO` [Compound 4098] is 3.5-fold lower in IC50: 58.5 nM for the first, 16.5 nM for the second. The second is the more potent here.

First: CC(C)(O)C#Cc1ccc(NC(=O)CSc2nnnn2-c2ccc(C(C)(C)C)cc2Cl)c(Cl)c1 [Compound 4005]
Second: CC(C)(C#Cc1ccc(NC(=O)CSc2nnnn2-c2ccc(C(C)(C)C)cc2Cl)c(Cl)c1)COC(N)=O [Compound 4042]
The IC50 of the first is 1.9-fold lower: 20 nM for the first, 37 nM for the second.

First: CC(C)(C#Cc1ccc(NC(=O)CSc2nnnn2-c2ccc(C3CC3)cc2Cl)c(Cl)c1F)OCCO [Compound 4169]
Second: CCC(C#Cc1ccc(NC(=O)CSc2nnnn2-c2ccc(C3CC3)cc2Cl)c(Cl)c1)(CC)NC(=O)OC(C)(C)C [Compound 4066]
The IC50 of the first is 80-fold lower: 9.2 nM for the first, 732 nM for the second.

`CC(NC(=O)COC(C)(C)C#Cc1ccc(NC(=O)CSc2nnnn2-c2ccc(C(C)(C)C)cc2Cl)c(Cl)c1)C(=O)O` (centres unmarked) [Compound 4053] and `CC(C)(C#Cc1ccc(NC(=O)CSc2nnnn2-c2ccc(C(C)(C)C)cc2Cl)c(Cl)c1)OCC(=O)Nc1ccon1` [Compound 4054] are within 1.5-fold of each other in IC50: 25 nM for the first, 35 nM for the second.

Compared with `CC(C)(C#Cc1ccc(NC(=O)CSc2nnnn2-c2cc(Br)ccc2Cl)c(Cl)c1)NC(=O)c1cc[n+]([O-])cc1` [Compound 4222], `CC(C)(C#Cc1ccc(NC(=O)CSc2nnnn2-c2cc(C3CC3)ccc2Cl)c(Cl)c1)NC(=O)c1cc[n+]([O-])cc1` [Compound 4208] is 1.7-fold lower in IC50: 11.5 nM for the first, 6.9 nM for the second.

First: CC(C)(C#Cc1ccc(NC(=O)CSc2nnnn2-c2cc(C3CC3)ccc2Cl)c(Cl)c1)NC(=O)CN1CCNCC1 [Compound 4195]
Second: CC(C)(C#Cc1ccc(NC(=O)CSc2nnnn2-c2ccc(C3CC3)cc2Cl)c(Cl)c1)C(=O)NCC1CCCO1 (centres unmarked) [Compound 4146]
The IC50 of the first is 1.7-fold lower: 22.5 nM for the first, 37.5 nM for the second. The first is the more potent here.

First: CC(C)(C#Cc1ccc(NC(=O)CSc2nnnn2-c2cc(C(C)(C)C)cc(Br)c2Cl)c(Cl)c1)NC(=O)CN1CCC(C(=O)O)CC1 [Compound 4226]
Second: CC(C)(C)c1ccc(-n2nnnc2SCC(=O)Nc2ccc(C#CCOC(N)=O)cc2Cl)c(Cl)c1 [Compound 4034]
The IC50 of the first is 5.8-fold higher: 52 nM for the first, 8.9 nM for the second.

`CC(C)(C#Cc1ccc(NC(=O)CSc2nnnn2-c2ccc(C3CC3)cc2Cl)c(Cl)c1)NC(=O)CNCCCn1ccnc1` [Compound 4127] was tested, and the IC50 was 20.5 nM.

same assay, conditions: IC50 mut, mutant reverse transcriptase, enzymatic assay of Example 24

Compared with `CN(CCc1ccncc1)C(=O)COc1ccc(NC(=O)CSc2nnnn2-c2ccc(C3CC3)cc2Cl)c(Cl)c1` [Compound 5037], `O=C(CSc1nnnn1-c1ccc(C2CC2)cc1Cl)Nc1ccc(C(=O)NCc2ccc[n+]([O-])c2)cc1Cl` [Compound 6039] is 1.7-fold lower in IC50: 174 nM for the first, 104 nM for the second.

Compared with `CC(C)(C)c1ccc(-n2nnnc2SCC(=O)Nc2ccc(C(=O)NC(CO)C(=O)O)cc2Cl)c(Cl)c1` (centres unmarked) [Compound 6018], `CC(C)(C)c1ccc(-n2nnnc2SCC(=O)Nc2ccc(OCC(=O)NC(CO)C(=O)O)cc2Cl)c(Cl)c1` (centres unmarked) [Compound 5018] is 3.3-fold higher in IC50: 28 nM for the first, 92 nM for the second.

Going from `CC(C)(C)c1ccc(-n2nnnc2SCC(=O)Nc2ccc(-c3ncc[nH]3)cc2Cl)c(Cl)c1` [Compound 3029] to `COC(=O)c1ccc(-c2ccc(NC(=O)CSc3nnnn3-c3ccc(C(C)(C)C)cc3Cl)c(Cl)c2)cc1` [Compound 2008], the IC50 falls from 76 nM to 39 nM (1.9-fold). The second is the more potent here.

`Cc1ccc(-n2nnnc2SCC(=O)Nc2ccc(/C=C/C(=O)O)cc2Cl)c(Cl)c1` [Compound 3006] and `CCNC(=O)c1ccc(NC(=O)CSc2nnnn2-c2ccc(C)cc2Cl)c(Cl)c1` [Compound 3008] are within 1.5-fold of each other in IC50: 265 nM for the first, 300 nM for the second.

`Cc1ccc(-n2nnnc2SCC(=O)Nc2ccc(-c3csc(N)n3)cc2Cl)c(Cl)c1` [Compound 3015] and `Cc1ccc(-n2nnnc2SCC(=O)Nc2ccc(-c3cscn3)cc2Cl)c(Cl)c1` [Compound 3014] are within 1.5-fold of each other in IC50: 185 nM for the first, 142 nM for the second.

Going from `CC(C)(C)c1ccc(-n2nnnc2SCC(=O)Nc2ccc(OCC(=O)NC3CCOCC3)cc2Cl)c(Cl)c1` [Compound 5030] to `COC(=O)C1CCN(CCOc2ccc(NC(=O)CSc3nnnn3-c3ccc(C(C)(C)C)cc3Cl)c(Cl)c2)CC1` [Compound 3035], the IC50 rises from 116 nM to 355 nM (3.1-fold). The first is the more potent here.

Going from `Cc1ccc(-c2nnsc2SCC(=O)Nc2ccc(-c3ccc(CC(=O)O)cc3)cc2Cl)c(Cl)c1` [Compound 1007] to `Cc1ccc(-n2nccc2OCC(=O)Nc2ccc(-c3ccc(CC(=O)O)cc3)cc2Cl)c(Cl)c1` [Compound 1003], the IC50 rises from 107 nM to 770 nM (7.2-fold). The first is the more potent here.

Compared with `CC(C)(C)c1ccc(-n2nnnc2SCC(=O)Nc2ccc(OCC(=O)NCc3ccc(N)cc3)cc2Cl)c(Cl)c1` [Compound 5026], `CC(C)(C)c1ccc(-n2nnnc2SCC(=O)Nc2ccc(C(=O)Nc3ccncc3)cc2Cl)c(Cl)c1` [Compound 6029] is 3.9-fold lower in IC50: 86 nM for the first, 22 nM for the second.

`O=C(CSc1nnnn1-c1ccc(C2CC2)cc1Cl)Nc1ccc(-c2ccc(OCCN3CCCCC3)cc2)cc1Cl` [Compound 2047] and `Cc1nnc(SCC(=O)Nc2ccc(-c3ccc(OCCN4CCCCC4)cc3)cc2Cl)n1-c1ccc(C2CC2)cc1Cl` [Compound 1013] are within 1.5-fold of each other in IC50: 63.5 nM for the first, 75 nM for the second.

Compared with `CC(C)(C)c1ccc(-n2nccc2SCC(=O)Nc2ccc(-c3ccc(CC(=O)O)cc3)cc2Cl)c(Cl)c1` [Compound 1006], `CC(C)(C)c1cc(Cl)c(-n2nnnc2SCC(=O)Nc2ccc(-c3ccc(CC(=O)O)cc3)cc2Cl)c(Cl)c1` [Compound 2020] is 12-fold lower in IC50: 216 nM for the first, 18 nM for the second.

Going from `CC(C)(C)c1ccc(-n2nnnc2SCC(=O)Nc2ccc(C(=O)NCCN3CCOCC3)cc2Cl)c(Cl)c1` [Compound 6028] to `CC(C)(C)c1ccc(-n2nnnc2SCC(=O)Nc2ccc(C(=O)NN3CCOCC3)cc2Cl)c(Cl)c1` [Compound 6007], the IC50 falls from 55 nM to 30 nM (1.8-fold).

`CC(C)(C#Cc1ccc(NC(=O)CSc2nnc(C(F)(F)F)n2-c2ccc(C3CC3)cc2Cl)c(Cl)c1)NC(=O)c1cc[n+]([O-])cc1` [Compound 1018] and `CC(C)(C)c1ccc(-n2nnnc2SCC(=O)Nc2ccc(C(=O)Nc3cccc(C(=O)O)c3)cc2Cl)c(Cl)c1` [Compound 6021] are within 1.5-fold of each other in IC50: 51 nM for the first, 58 nM for the second.

Going from `Cc1ccc(-c2c(OCC(=O)Nc3ccc(C#CC(C)(C)O)cc3Cl)n[nH]c2C)c(Cl)c1` [Compound 1016] to `Cc1ccc(-n2nnnc2SCC(=O)Nc2ccc(-c3nnn[nH]3)cc2Cl)c(Cl)c1` [Compound 3019], the IC50 rises from 48 nM to 539 nM (11-fold).

First: CC(C)(C)c1ccc(-n2nnnc2SCC(=O)Nc2ccc(-c3ccc(OCCN4CC[C@@H](O)C4)cc3)cc2Cl)c(Cl)c1 [Compound 2041]
Second: COC(=O)c1ccc(-c2ccc(NC(=O)CSc3nnnn3-c3ccc(C)cc3Cl)c(Cl)c2)cc1 [Compound 2001]
The IC50 of the first is 4.8-fold lower: 28 nM for the first, 133 nM for the second.

Going from `O=C(CSc1nnnn1-c1ccc(C2CC2)cc1Cl)Nc1ccc(-c2ccc(OCCN3CCCC3)cc2)c(F)c1Cl` [Compound 2057] to `O=C(CSc1nnnn1-c1ccc(C2CC2)cc1Cl)Nc1ccc(-c2ccc(OCCN3CCCCC3)c(Cl)c2)cc1Cl` [Compound 3038], the IC50 rises from 8.8 nM to 167 nM (19-fold).

For `CC(C)(C)c1ccc(-n2nnnc2SCC(=O)Nc2ccc(C(=O)NC3CCN(Cc4ccccc4)CC3)cc2Cl)c(Cl)c1` [Compound 6009], the IC50 was 73 nM.
